According to patent US7189729B2, “Methods and compositions as protein kinase inhibitors” (IRM LLC, priority 2003, dated 2007):

Biological target: b-Raf (Homo sapiens, UniProt P15056)
Assay: b-Raf inhibition assay (IκBα substrate, 384-well plate)
Format: biochemical
Procedure: Compounds of the invention are tested for their ability to inhibit the activity of b-Raf. The assay is carried out in 384-well MaxiSorp plates (NUNC) with black walls and clear bottom. The substrate, IκBα is diluted in DPBS (1:750) and 15 μl is added to each well. The plates are incubated at 4° C. overnight and washed 3 times with TBST (25 mM Tris, pH 8.0, 150 mM NaCl and 0.05% Tween-20) using the EMBLA plate washer. Plates are blocked by Superblock (15 μl/well) for 3 hours at room temperature, washed 3 times with TBST and pat-dried. Assay buffer containing 20 μM ATP (10 μl) is added to each well followed by 100 nl or 500 nl of compound. B-Raf is diluted in the assay buffer (1 μl into 25 μl) and 10 μl of diluted b-Raf is added to each well ([…]). The plates are incubated at room temperature for 2.5 hours. The kinase reaction is stopped by washing the plates 6 times with TBST. Phosph-IκBα (Ser32/36) antibody is diluted in Superblock (1:10,000) and 15 μl is added to each well. The plates are incubated at 4° C. overnight and washed 6 times with TBST. AP-conjugated goat-anti-mouse IgG is diluted in Superblock (1:1,500) and 15 μl is added to each well. Plates are incubated at room temperature for 1 hour and washed 6 times with TBST. […] Plates are read on Acquest or Analyst GT using a Fluorescence Intensity Nanxin BBT anion (505 dichroic mirror).

Sequence of b-Raf (P15056 whole entry): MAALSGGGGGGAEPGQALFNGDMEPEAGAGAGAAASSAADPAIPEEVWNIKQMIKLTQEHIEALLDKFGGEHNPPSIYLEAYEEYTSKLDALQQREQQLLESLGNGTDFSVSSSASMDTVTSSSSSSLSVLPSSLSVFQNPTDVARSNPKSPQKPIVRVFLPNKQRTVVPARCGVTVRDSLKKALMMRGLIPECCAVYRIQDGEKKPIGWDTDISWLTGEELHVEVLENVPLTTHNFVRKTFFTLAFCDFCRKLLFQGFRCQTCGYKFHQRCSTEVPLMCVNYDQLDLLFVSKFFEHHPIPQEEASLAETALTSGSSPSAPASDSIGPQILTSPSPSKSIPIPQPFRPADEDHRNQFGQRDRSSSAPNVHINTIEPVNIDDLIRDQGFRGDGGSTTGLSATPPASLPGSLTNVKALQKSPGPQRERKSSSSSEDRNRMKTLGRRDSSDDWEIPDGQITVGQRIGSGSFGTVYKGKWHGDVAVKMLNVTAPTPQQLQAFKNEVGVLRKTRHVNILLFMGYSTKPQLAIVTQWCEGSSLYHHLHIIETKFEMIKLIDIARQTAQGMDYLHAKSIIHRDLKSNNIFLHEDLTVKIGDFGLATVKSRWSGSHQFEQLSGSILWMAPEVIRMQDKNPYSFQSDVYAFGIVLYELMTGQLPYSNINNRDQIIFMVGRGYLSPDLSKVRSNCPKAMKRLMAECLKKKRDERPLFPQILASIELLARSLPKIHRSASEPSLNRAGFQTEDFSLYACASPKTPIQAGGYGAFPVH

**Q.** `CN1CCN(Cc2ccc(C(=O)Nc3cccc(Nc4ccccc4-c4cc(Nc5cccc(N(C)C)c5)ncn4)c3)cc2)CC1` [Example 1, N-(3-{2-[6-(3-Dimethylamino-phenylamino)-pyrimidin-4-yl]-phenylamino}-phenyl)-4-(4-methyl-piperazin-1-ylmethyl)-benzamide] was tested. Which IC50 did it give?
**A.** 0.667 µM
